ChEMBL document CHEMBL2169870, “A novel aminopeptidase N inhibitor developed by virtual screening approach” (Bioorg Med Chem Lett, 2012)
Activity calls are given as the source filed them. The rule behind the calls is not given here.

Key:
[1] = molecular target: T1, Aminopeptidase N (Sus scrofa, UniProt P15145); assay: Inhibition of porcine kidney microsome aminopeptidase using L-Leu-p-nitroanilide as substrate after 30 mins
T1 sequence (P15145 whole entry): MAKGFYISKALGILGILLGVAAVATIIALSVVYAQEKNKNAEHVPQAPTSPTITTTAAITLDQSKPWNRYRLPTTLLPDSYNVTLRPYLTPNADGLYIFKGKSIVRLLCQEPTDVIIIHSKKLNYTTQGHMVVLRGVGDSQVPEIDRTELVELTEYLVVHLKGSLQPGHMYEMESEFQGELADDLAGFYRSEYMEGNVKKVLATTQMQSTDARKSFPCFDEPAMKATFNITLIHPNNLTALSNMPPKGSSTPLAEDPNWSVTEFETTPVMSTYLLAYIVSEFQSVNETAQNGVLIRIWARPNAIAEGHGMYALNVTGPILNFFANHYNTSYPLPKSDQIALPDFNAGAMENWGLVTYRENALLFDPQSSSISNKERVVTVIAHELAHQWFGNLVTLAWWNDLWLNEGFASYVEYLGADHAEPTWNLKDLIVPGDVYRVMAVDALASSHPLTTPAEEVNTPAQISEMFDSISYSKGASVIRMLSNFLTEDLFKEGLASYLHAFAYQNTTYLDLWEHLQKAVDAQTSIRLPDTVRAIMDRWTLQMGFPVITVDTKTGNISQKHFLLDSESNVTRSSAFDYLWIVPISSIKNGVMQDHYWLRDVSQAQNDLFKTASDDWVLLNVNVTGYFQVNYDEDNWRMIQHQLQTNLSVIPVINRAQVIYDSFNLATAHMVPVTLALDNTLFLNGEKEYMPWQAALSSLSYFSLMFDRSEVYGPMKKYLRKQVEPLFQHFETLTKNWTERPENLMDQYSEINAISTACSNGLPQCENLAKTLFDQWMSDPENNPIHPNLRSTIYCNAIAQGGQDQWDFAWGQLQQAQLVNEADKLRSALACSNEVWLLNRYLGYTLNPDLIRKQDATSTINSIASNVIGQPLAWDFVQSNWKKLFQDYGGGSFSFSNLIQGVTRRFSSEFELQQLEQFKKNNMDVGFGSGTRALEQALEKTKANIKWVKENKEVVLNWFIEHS

[2] = tested on: MDA-MB-231; assay: Induction of apoptosis in human MDA-MB-231 cells assessed as late apoptotic cells at 20 uM after 24 hrs using annexin-V-FITC staining by flow cytometry (reference value: 1.69%); format: functional
[3] = tested on: MDA-MB-231; assay: Induction of apoptosis in human MDA-MB-231 cells assessed as early apoptotic cells at 20 uM after 24 hrs using annexin-V-FITC staining by flow cytometry (reference value: 1.69%); format: functional
[4] = tested on: MDA-MB-231; assay: Cell cycle arrest in human MDA-MB-231 cells assessed as accumulation at S phase at 20 uM after 48 hrs using propidium iodide staining by flow cytometry (reference value: 33.25%); format: functional
[5] = tested on: ES2; assay: Cytotoxicity against human ES2 cells after 48 hrs by MTT assay
[6] = tested on: SK-OV-3; assay: Cytotoxicity against human SKOV3 cells after 48 hrs by MTT assay
[7] = tested on: MDA-MB-231; assay: Antimetastatic activity in human MDA-MB-231 cells assessed as inhibition of cell invasion at 20 uM after 20 hrs by matrigel assay; format: functional, cell-based
[8] = tested on: MDA-MB-231; assay: Cell cycle arrest in human MDA-MB-231 cells assessed as accumulation at G1 phase at 20 uM after 48 hrs using propidium iodide staining by flow cytometry (reference value: 48.40%); format: functional
[9] = tested on: HeLa; assay: Cytotoxicity against human HeLa cells after 48 hrs by MTT assay
[10] = tested on: MDA-MB-231; assay: Cell cycle arrest in human MDA-MB-231 cells assessed as accumulation at G2 phase at 20 uM after 48 hrs using propidium iodide staining by flow cytometry (reference value: 18.35%); format: functional
[11] = tested on: NIH3T3; assay: Cytotoxicity against mouse NIH/3T3 cells after 48 hrs by MTT assay; format: cell-based
[12] = tested on: MCF7; assay: Cytotoxicity against human MCF7 cells after 48 hrs by MTT assay
[13] = tested on: NB-4; assay: Cytotoxicity against human NB4 cells after 48 hrs by MTT assay
[14] = tested on: HL-60; assay: Cytotoxicity against human HL60 cells after 48 hrs by MTT assay
[15] = tested on: MDA-MB-231; assay: Cell cycle arrest in human MDA-MB-231 cells assessed as accumulation at G1 phase at 300 uM after 48 hrs using propidium iodide staining by flow cytometry (reference value: 48.40%); format: functional
[16] = tested on: MDA-MB-231; assay: Cell cycle arrest in human MDA-MB-231 cells assessed as accumulation at S phase at 300 uM after 48 hrs using propidium iodide staining by flow cytometry (reference value: 33.25%); format: functional
[17] = tested on: MDA-MB-231; assay: Antimetastatic activity in human MDA-MB-231 cells assessed as inhibition of cell invasion at 300 uM after 20 hrs by matrigel assay; format: functional, cell-based
[18] = tested on: HCT-116; assay: Cytotoxicity against human HCT116 cells after 48 hrs by MTT assay; details: HCT-116, 48 h
[19] = Cytotoxicity against human ES2 cells after 48 hrs by MTT assay; details: ES-2, 48 h
[20] = tested on: MDA-MB-231; assay: Cytotoxicity against human MDA-MB-231 cells after 48 hrs by MTT assay; details: MDA-MB-231, 48 h
[21] = tested on: MDA-MB-231; assay: Cell cycle arrest in human MDA-MB-231 cells assessed as accumulation at G2 phase at 300 uM after 48 hrs using propidium iodide staining by flow cytometry (reference value: 18.35%); format: functional
[22] = tested on: MDA-MB-231; assay: Induction of apoptosis in human MDA-MB-231 cells assessed as late apoptotic cells at 300 uM after 24 hrs using annexin-V-FITC staining by flow cytometry (reference value: 1.69%); format: functional
[23] = tested on: SK-OV-3; assay: Cytotoxicity against human SKOV3 cells after 48 hrs by MTT assay; details: SK-OV-3, 48 h
[24] = tested on: HeLa; assay: Cytotoxicity against human HeLa cells after 48 hrs by MTT assay
[25] = tested on: K562; assay: Cytotoxicity against human K562 cells after 48 hrs by MTT assay; details: K562, 48 h
[26] = tested on: MDA-MB-231; assay: Induction of apoptosis in human MDA-MB-231 cells assessed as early apoptotic cells at 300 uM after 24 hrs using annexin-V-FITC staining by flow cytometry (reference value: 1.69%); format: functional
[27] = tested on: A549; assay: Cytotoxicity against human A549 cells after 48 hrs by MTT assay; details: A549, 48 h
[28] = tested on: HL-60; assay: Cytotoxicity against human HL60 cells after 48 hrs by MTT assay; details: HL-60, 48 h
[29] = tested on: NB-4; assay: Cytotoxicity against human NB4 cells after 48 hrs by MTT assay; details: NB-4, 48 h
[30] = tested on: PC-3; assay: Cytotoxicity against human PC3 cells after 48 hrs by MTT assay; details: PC-3, 48 h
[31] = tested on: MCF7; assay: Cytotoxicity against human MCF7 cells after 48 hrs by MTT assay; details: MCF7, 48 h

With `O=C1NC(=O)C(=NNc2cccc(C(=O)O)c2)C(=O)N1` the IC50 [1] was > 1000 µM.
With `CC[C@H](N)[C@H](O)c1ccc(OC)cc1` the IC50 [1] was > 1000 µM.
For `Cc1cc(/C=N/Nc2ccc([N+](=O)[O-])cc2[N+](=O)[O-])c(C)n1-c1ccc(S(N)(=O)=O)cc1`, the IC50 [1] was > 1000 µM.
In the case of `O=C1NC(=O)C(=NNc2cc([N+](=O)[O-])ccc2O)C(=O)N1`, the IC50 [1] is reported as > 1000 µM.
For `CC(=O)NC(=S)NNC(=O)COc1ccc(Br)cc1`, the IC50 [1] was 227 µM.
With `NNC(=O)/C(=C/c1ccc([N+](=O)[O-])cc1)NC(=O)c1ccc(Br)cc1` the IC50 [1] was 438 µM.
Compound `Nn1c(COc2ccccc2)n[nH]c1=S` has an IC50 [1] of 424 µM.
`CCOC(=O)/C(N)=N/NS(=O)(=O)c1ccc(C)cc1` gave an IC50 [1] of 321 µM.
`C=CCN/C(S)=N/C=C1C(=O)NC(=O)NC1=O` gave an IC50 [1] of 65.9 µM.
With `O=C1Nc2ccccc2/C1=C1/SC(=S)N(NC(=O)c2cccc(O)c2)C1=O` the IC50 [1] was 170 µM.
For `Cc1[nH]cnc1/C=N/NC(N)=S`, the IC50 [1] was > 1000 µM.
For `COc1cc(/C=C2/C(=O)NC(=O)N(Cc3ccc(F)cc3)C2=O)cc(OC)c1O`, the IC50 [1] was 78.9 µM.
With `O=C(CN1C(=O)C2(OCCO2)c2cc(Br)ccc21)NO` the Activity [2] was 5.35%, the Activity [3] was 4.99% and the Activity [4] was 2.9%. For the same compound, the Activity [5] was “Dose-dependent effect”, the Activity [6] was “Dose-dependent effect” and the Activity [7] was “Active”. The Activity [8] was 93.27%, the Activity [9] was “Dose-dependent effect” and the Activity [10] was 3.83%. The Activity ([11]; mouse, nih3t3, 48 h) was “Dose-dependent effect”, the Activity [12] was “Dose-dependent effect” and the Activity [13] was “Dose-dependent effect”. The Activity [14] was “Dose-dependent effect”.
In the case of `CC(C)C[C@H](NC(=O)[C@@H](O)[C@H](N)Cc1ccccc1)C(=O)O` [UBENIMEX], the Activity [15] is reported as 77.91%, the Activity [16] is reported as 15.06% and the Activity [17] is reported as “Active”. For the same compound, the IC50 [18] was > 1000 µM, the IC50 [19] was 74.5 µM and the IC50 [20] was 50.6 µM. For the same compound, the Activity [21] was 7.03%, the Activity [22] was 2.14% and the IC50 [23] was > 1000 µM. The IC50 [24] was 155 µM, the IC50 [25] was 136 µM and the Activity [26] was 8.54%. The IC50 ([11]; Mus musculus, NIH3T3, 48 h) was > 1000 µM, the IC50 [27] was 513 µM and the IC50 [28] was 86.4 µM. For the same compound, the IC50 [29] was 221 µM, the IC50 [30] was 399 µM and the IC50 [31] was > 1000 µM.
For `NS(=O)(=O)c1ccc(-n2cccc2/C=C2/C(=O)NN(c3ccc(Cl)cc3)C2=O)cc1`, the IC50 [1] was > 1000 µM.
In the case of `NC(=S)NNC(=O)c1ccccc1C(=O)O`, the IC50 [1] is reported as > 1000 µM.
`NC(=O)c1ccccc1NC(=O)c1ccccc1C(=O)O` gave an IC50 [1] of 66.3 µM.
For `O=C(O)COc1ccc(/C=N/n2c(COc3ccccc3)nc3ccccc3c2=O)cc1`, the IC50 [1] was 188 µM.
`Nc1nc2c(ncn2S(=O)(=O)c2cccc(C(=O)O)c2)c(=O)[nH]1` gave an IC50 [1] of 202 µM.
